Laboratory results published in PubChem BioAssay (NCI).
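All cell lines were grown in 96-well plates and treated with compound for 48 hours. GI50 = concentration required for 50% inhibition of growth. TGI: concentration producing complete growth inhibition.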

Legend:
Test in all cases: growth of human tumour cells (NCI), 48 h
MALME-3M melanoma = system: MALME-3M melanoma
HCC-2998 colon = system: HCC-2998 colon
MDA-MB-435 = system: MDA-MB-435
LOX IMVI melanoma = system: LOX IMVI melanoma
HL-60(TB) leukemia = system: HL-60(TB) leukemia
UO-31 renal = system: UO-31 renal
KM12 colon = system: KM12 colon
OVCAR-3 ovarian = system: OVCAR-3 ovarian

| SMILES | TGI (MALME-3M melanoma) [µM] | TGI (HCC-2998 colon) | TGI (MDA-MB-435) | TGI (LOX IMVI melanoma) | TGI (HL-60(TB) leukemia) | TGI (UO-31 renal) [µM] | TGI (KM12 colon) | GI50 (MALME-3M melanoma) [µM] | GI50 (HCC-2998 colon) | GI50 (MDA-MB-435) | GI50 (LOX IMVI melanoma) | GI50 (OVCAR-3 ovarian) | TGI (OVCAR-3 ovarian) | GI50 (KM12 colon) | GI50 (HL-60(TB) leukemia) | GI50 (UO-31 renal) [µM] |
| --- | --- | --- | --- | --- | --- | --- | --- | --- | --- | --- | --- | --- | --- | --- | --- | --- |
| C=CC1(C)CCC2C(=CCC3C2(C)CC(O)C(O)C3(C)COC2OC(CO)C(O)C(O)C2O)C1 (stereo not given) | > 100 | > 100 µM | > 100 µM | > 100 µM | > 100 µM | > 100 | > 100 µM | – | – | – | – | – | – | – | – | – |
| Nc1c(C(=O)Nc2cccc(Cl)c2)sc2nc3c(cc12)C(=O)CCC3 | > 100 | > 100 µM | 0.284 µM | > 100 µM | > 100 µM | > 100 | > 100 µM | 0.498 | 0.849 µM | 0.0563 µM | 0.905 µM | 0.305 µM | > 100 µM | 0.298 µM | – | – |
| C=CCC1(O)c2ccccc2C(=O)c2c(OCC(=O)OCC)ccc(OCC(=O)OCC)c21 (stereo not given) | – | > 100 µM | > 100 µM | > 100 µM | > 100 µM | > 100 | > 100 µM | – | 44.9 µM | > 100 µM | > 100 µM | > 100 µM | > 100 µM | > 100 µM | 75.9 µM | > 100 |
| COc1cccc2c1nc(C(F)F)n2-c1nc(-c2ccc(NS(=O)(=O)CCN(C)C)cc2)nc(N2CCOCC2)n1 | 0.317 | 17.4 µM | 7.2 µM | 2.13 µM | 10.2 µM | 1.1 | 12.8 µM | 0.0333 | 0.0974 µM | 0.132 µM | 0.176 µM | 0.105 µM | 3.13 µM | 0.275 µM | 0.0397 µM | 0.0659 |
| O=c1[nH]c2ccccc2n1C1CCNCC1 | – | > 100 µM | > 100 µM | > 100 µM | > 100 µM | > 100 | > 100 µM | – | > 100 µM | > 100 µM | > 100 µM | > 100 µM | > 100 µM | > 100 µM | > 100 µM | > 100 |
| C[N+]1([O-])C2CCC1CC(OC(=O)C(CO)c1ccccc1)C2 (stereo not given) | > 100 | > 100 µM | > 100 µM | > 100 µM | > 100 µM | > 100 | > 100 µM | – | – | – | – | – | > 100 µM | – | – | – |
| Cc1ccc(N)c(S)c1 | 82.6 | 88.1 µM | 36.1 µM | 30 µM | 58.5 µM | 26.7 | 36.7 µM | – | – | – | – | – | 44 µM | – | – | – |
| O=C(CCCc1ccc(N(CCCl)CCCl)cc1)NCc1ccccc1 | 37.6 | 36.4 µM | 18 µM | 23.9 µM | 23.4 µM | 39.1 | 52.1 µM | 13.2 | 15.4 µM | 3.69 µM | 5.37 µM | 13.7 µM | 38.1 µM | 12.3 µM | 4.37 µM | 5.43 |
| CCN1CCN(CCC(=O)Nc2cccc(-n3cc(-c4ccncc4)c(-c4ccc(Cl)c(OC)c4)n3)c2)CC1 | 2.35 | 2.63 µM | 0.35 µM | 1.66 µM | 1.13 µM | 2.53 | 1.68 µM | 0.765 | 1.27 µM | 0.123 µM | 0.445 µM | 0.352 µM | 1.43 µM | 0.394 µM | 0.34 µM | 0.922 |
| CC(C)(C)CC(C)(C)c1ccc(OCCO)cc1 | – | 19.7 µg/mL | 18.6 µg/mL | 11.2 µg/mL | 31.6 µg/mL | – | 18.6 µg/mL | – | 7.57 µg/mL | 6.26 µg/mL | 2.19 µg/mL | 2.63 µg/mL | 13.4 µg/mL | 7.81 µg/mL | 1.81 µg/mL | – |
| O=C(NCc1cn(Cc2cccc(Oc3ccccc3)c2)nn1)c1cccnc1Nc1ccc(F)cc1 | > 100 | > 100 µM | – | > 100 µM | > 100 µM | > 100 | > 100 µM | 15.1 | > 100 µM | – | 61.3 µM | 17.7 µM | > 100 µM | 5.61 µM | > 100 µM | 86.3 |
| COC(=O)N[C@H]1CCc2cc(OC)c(OC)c(OC)c2-c2ccc(SC)c(=O)cc21 | > 100 | > 100 µM | – | > 100 µM | – | > 100 | > 100 µM | < 0.012 | < 0.01 µM | – | < 0.01 µM | < 0.01 µM | – | < 0.01 µM | < 0.01 µM | < 0.0447 |
| C/C(=C\C(=O)O[C@H]1[C@@H]2[C@H](C)CC[C@H]2[C@]2(C)O[C@@]1(C1CCCCC1)C[C@H]2OC(=O)CO)c1ccccc1 | 13.5 | 14.4 µM | 12.9 µM | 12.9 µM | 13.1 µM | – | 13 µM | 7.25 | 7.32 µM | 6.84 µM | 6.97 µM | 7.69 µM | 13.9 µM | 6.44 µM | 5.04 µM | – |
